Columns and labels:
[1] = tested on: autoimmune encephalomyelitis model; assay: Experiment 3: autoimmune encephalomyelitis model, clinical score; type: in vivo, rats; settings: purified periandrins in the model of Experiment 3
cytokine production = assay: Experiment 6: inhibition of cytokine production by purified periandrins, same manner as Experiment 1; type: in vivo, rats; settings: 0.1-3 mg/Kg of body weight per injection
Protocol: (§1) In this case, however, the number of groups of rats were made six, one of which includes the rats to which PD-I was injected, another of which includes the rats to which PD-II was injected, another of which includes the rats to which PD-III was injected, another of which includes the rats to which PD-IV was injected, another of which includes the rats to which prednisolone acetate was injected, and another of which includes the rats to which a solvent without any drugs was injected.
(§2) The dose per one injection of PD-I, PD-II, PD-III and PD-IV was 0.1-3 mg/Kg of body weight.
(§3) The dose per one injection of prednisolone acetate was 5 mg/Kg of body weight.

[2] = tested on: collagen induction arthritis model; assay: Experiment 2: collagen induction arthritis model, arthritis index; type: in vivo, mice; settings: purified periandrins in the model of Experiment 2
Protocol: Clinical symptoms of arthritis of mice in the respective groups were evaluated by one and the same observer using 6 rankings from zero to five (the larger the value is, the worse the symptom is), and the averages per the respective groups were calculated. These evaluations were performed in 0, 3rd, 4th, 5th, 6th, 7th and 8th week after the first immunity The results were shown in FIG. 3 and Table 3.

liver function = assay: Experiment 6: protecting and promoting liver function by purified periandrins, same manner as Experiment 1; type: in vivo, rats; settings: 0.1-3 mg/Kg of body weight per injection
Protocol: as §1, §2, §3

[3] = target: T1, 11 β-hydroxysteroid dehydrogenase (Rattus norvegicus, UniProt P16232); assay: Experiment 5: inhibition of 11 β-hydroxysteroid dehydrogenase activity (rat liver microsome, cortisone by HPLC); type: biochemical; settings: for inhibitory activity relative to glycirrhizin: from IC50 values; for IC50: rat liver microsome, substrate hydrocortisone, NADP 1 mM, pH 8.0, read-out: IC50 (concentration in which 50 percent of enzyme activity is inhibited)
T1 construct: Fresh rat liver was ice-cooled and homogenized in 0.25 M sucrose solution; from tissue; host or cells: rat liver microsome fraction
Protocol: In order to evaluate the effect of inhibiting 11 β-hydeoxysteroid dehydrogenase activity by the purified periandrins (PD-I, PD-II, PD-III, PD-IV) obtained in Example 4 or 5, IC 50 values (concentration in which the 50 percent of activity of the above enzyme is inhibited) of the purified periandrins were measured by the following steps I-VI.
I. An enzymatic solution containing rat liver microsome as a preparation of 11 β-hydroxysteroid dehydrogenase was prepared as below.
Fresh rat liver was ice-cooled and homogenized in 0.25 M sucrose solution. Then, at the temperature of 4° C., it was centrifuged for 20 minutes at 10,000×g.
After separating cell organelles of the nucleus, mitochondria and lysosome as deposits, the supernatant layer was further centrifuged at 105,000×g for 60 minutes at the temperature of 4° C. to obtain a microsome fraction as a precipitate.
The obtained microsome fraction was suspended by 0.25 M sucrose solution to produce an enzymatic solution, and the obtained solution was stored at the temperature of −20 degrees till the time of measurement of enzyme activity.
1 mM of NADP (product of Oriental Yeast Co., Ltd,) as a coenzyme and an amount of PD-I having a predetermined concentration (ranging from 2 to 1480 μM) as an inhibitor were added to 0.8 ml of Tris-HCI buffer solution having the concentration of 100 mM (PH8.0).
0.2 ml of the enzymatic solution prepared in step I was added to the obtained solution, and after three minutes of preincubation at 37° C., 0.02 ml of 5 mM hydrocortisone solution which was dissolved in methanol was added to start a reaction between 11 β-hydroxysteroid dehydrogenase and PD-I. The reaction was continued for 30 minutes at the temperature of 30° C., and then it was stopped by adding 0.5 ml of ethyl acetate.
This solution was centrifuged and an ethyl acetate layer was separated into an Eppendorf tube. In the mean time, cortisone and substrate hydrocortisone generated by the reaction between 11 β-hydroxysteroid dehydrogenase and substrate hydrocortisone are transferred to the ethyl acetate layer.
Furthermore, the water phase after the centrifuge was again centrifuged in the same manner as above by adding 0.5 ml of ethyl acetate to separate an ethyl acetate layer. This process was repeated two more times.
The ethyl acetate layers obtained by three time extraction were put together into an Eppendorf tube and dried using a centrifugal evaporator.
To prepare a measurement sample, 0.2 ml of methanol was added into the Eppendorf tube in which the ethyl acetate layers were dried in step II, and then the tube was left for a night so that cortisone was completely dissolved. Cortisone was determined using HPLC.
Particularly, quantity of cortisone contained in the sample was calculated from a ratio of a peak area corresponding to cortisone when the measurement sample was introduced to HPLC to a peak area when 5 μl of standard solution (0.1 mg/ml of cortisone-methanol solution) was introduced.
The measurement conditions of HPLC were as follows.
IV. Relative activity (ratio of activity remained after reaction with an inhibitor to the initial activity) of 11 β-hydroxysteroid dehydrogenase was calculated from the quantity of cortisone in accordance with the following equation. Relative activity=((CI−CBL)/(CT−CBL))×100(%) • where • CT: cortisone quantity generated when no inhibitor is added; • CI: cortisone quantity generated when an inhibitor exists; and • CBL: cortisone quantity when enzyme is not added.
V. Measurement of relative activity when PD-II, PD-III, PD-IV, and glycirrhizin were added as an inhibitor instead of PD-I was performed in the same manner as in steps I-IV.
The concentration of the inhibitor PD-I, PD-II, PD-III or PD-IV in the measurement of relative activity is a predetermined value ranging from 2 to 1480 μM. The concentration of glycirrhizin is a predetermined value ranging from 0.2 to 445 μM. […]

T1 sequence (P16232 whole entry): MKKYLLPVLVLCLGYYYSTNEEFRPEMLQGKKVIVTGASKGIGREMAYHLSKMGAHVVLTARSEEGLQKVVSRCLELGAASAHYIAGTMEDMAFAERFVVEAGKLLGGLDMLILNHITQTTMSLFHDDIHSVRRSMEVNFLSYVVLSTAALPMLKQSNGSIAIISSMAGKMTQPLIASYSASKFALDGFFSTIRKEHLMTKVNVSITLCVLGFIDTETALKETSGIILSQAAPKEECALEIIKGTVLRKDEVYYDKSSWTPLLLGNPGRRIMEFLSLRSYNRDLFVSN

CC1(C)[C@@H](O[C@@H]2O[C@H](C(=O)O)[C@@H](O)[C@H](O)[C@H]2O[C@@H]2O[C@H](C(=O)O)[C@@H](O)[C@H](O)[C@H]2O)CC[C@]2(C=O)[C@H]3CC[C@@H]4C5=C[C@@](C)(C(=O)O)CC[C@]5(C)CC[C@@]4(C)[C@]3(C)CC[C@@H]12 [PD-I, periandrin I]
symptoms of encephalomyelitis [1]: eased the symptoms of arthritis and encephalomyelitis | effect of inhibiting cytokine production (cytokine production): show the effects of inhibiting cytokine production | symptoms of arthritis [2]: eased the symptoms of arthritis | effect of protecting and promoting liver function (liver function): protecting and promoting liver function | inhibitory activity relative to glycirrhizin [3]: about one fifth to one twentieth of glycirrhizin | IC50 [3]: 214 µM

CC1(C(=O)O)C=C2C3CCC4C5(CO)CCC(OC6OC(C(=O)O)C(O)C(O)C6OC6OC(C(=O)O)C(O)C(O)C6O)C(C)(C)C5CCC4(C)C3(C)CCC2(C)CC1 (stereo not shown) [PD-III, periandrin III]
symptoms of encephalomyelitis [1]: eased the symptoms of arthritis and encephalomyelitis | effect of inhibiting cytokine production (cytokine production): show the effects of inhibiting cytokine production | symptoms of arthritis [2]: eased the symptoms of arthritis | effect of protecting and promoting liver function (liver function): protecting and promoting liver function | inhibitory activity relative to glycirrhizin [3]: about one fifth to one twentieth of glycirrhizin | IC50 [3]: 581 µM

CC1(C)[C@@H](O[C@H]2O[C@H](C(=O)O)[C@@H](O)[C@H](O)[C@H]2O[C@@H]2O[C@H](C(=O)O)[C@@H](O)[C@H](O)[C@H]2O)CC[C@]2(C)[C@H]3C(=O)C=C4[C@@H]5C[C@@](C)(C(=O)O)CC[C@]5(C)CC[C@@]4(C)[C@]3(C)CC[C@@H]12 [glycirrhizin, reference compound]
IC50 [3]: 26.2 µM

periandrin II [PD-II]
symptoms of encephalomyelitis [1]: eased the symptoms of arthritis and encephalomyelitis | effect of inhibiting cytokine production (cytokine production): show the effects of inhibiting cytokine production | symptoms of arthritis [2]: eased the symptoms of arthritis | effect of protecting and promoting liver function (liver function): protecting and promoting liver function | inhibitory activity relative to glycirrhizin [3]: about one fifth to one twentieth of glycirrhizin | IC50 [3]: 150 µM

periandrin IV [PD-IV]
symptoms of encephalomyelitis [1]: eased the symptoms of arthritis and encephalomyelitis | effect of inhibiting cytokine production (cytokine production): show the effects of inhibiting cytokine production | symptoms of arthritis [2]: eased the symptoms of arthritis | effect of protecting and promoting liver function (liver function): protecting and promoting liver function | inhibitory activity relative to glycirrhizin [3]: about one fifth to one twentieth of glycirrhizin | IC50 [3]: 240 µM

From patent publication US6992068B2 (Gifu Shellac Mfg., Co., Ltd., priority 2000, dated 2006)
